Laboratory results taken from patent US20170008928A1, “NOVEL PEPTIDES AND PEPTIDE DERIVATIVES AND USES THEREOF” (Novo Nordisk A/S, priority 2015, published 2017).
pEC50, pIC50: −log10 of the molar value. Where two headings read alike, the source gives them in different places. Starred links: 1 amine or outer side, 2 acyl side, 3 side chain; linkers in the order of their positions; H or OH if unused. Non-standard residues stand in square brackets, D forms with d. Residues, ends and D or L forms follow the SMILES beside them. *: point of attachment. Phe(4-CH2SO3H) = N[C@@H](Cc1ccc(CS(=O)(=O)O)cc1)C(=O)O; sY = N[C@@H](Cc1ccc(OS(=O)(=O)O)cc1)C(=O)O; C18 diacid = O=C(O)CCCCCCCCCCCCCCCCC(=O)*; γGlu = O=C(O)[C@H](CCC(=O)[*:2])N[*:1]; Met(O2) = CS(=O)(=O)CC[C@H](N)C(=O)O; NMeF = CN[C@@H](Cc1ccccc1)C(=O)O; dNMeD = CN[C@H](CC(=O)O)C(=O)O; Nle = CCCC[C@H](N)C(=O)O; AEEA = NCCOCCOCC(=O)O

Columns and labels:
[1] = target: T1, human cholecystokinin-1 receptor (CCK-1R) (Homo sapiens, UniProt P32238); test: In vitro potency on CCK-1R, whole cell functional assay (IP1 accumulation, IP-One HTRF); type: cell-based
T1 construct: host or cells: 1321-N1 cells
T1 sequence (P32238 1-428): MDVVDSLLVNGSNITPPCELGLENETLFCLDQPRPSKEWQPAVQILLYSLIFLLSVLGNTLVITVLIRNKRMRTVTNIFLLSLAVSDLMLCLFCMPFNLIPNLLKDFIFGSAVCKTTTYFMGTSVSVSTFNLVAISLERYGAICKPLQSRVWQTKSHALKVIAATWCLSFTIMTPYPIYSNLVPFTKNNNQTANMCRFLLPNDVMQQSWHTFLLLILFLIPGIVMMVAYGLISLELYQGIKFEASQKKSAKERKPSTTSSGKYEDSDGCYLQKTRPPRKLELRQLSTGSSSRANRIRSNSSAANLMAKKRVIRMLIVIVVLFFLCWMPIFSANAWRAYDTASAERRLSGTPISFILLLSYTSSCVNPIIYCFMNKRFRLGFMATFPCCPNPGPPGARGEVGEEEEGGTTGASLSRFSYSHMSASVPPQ

[2] = target: T2, human cholecystokinin-2 receptor (CCK-2R) (Homo sapiens, UniProt P32239); test: In vitro potency on CCK-2R, whole cell functional assay (IP1 accumulation, IP-One HTRF); type: cell-based
T2 construct: host or cells: 1321-N1 cells (plasma membranes prepared by Evotec AG Hamburg)
T2 sequence (P32239 1-447): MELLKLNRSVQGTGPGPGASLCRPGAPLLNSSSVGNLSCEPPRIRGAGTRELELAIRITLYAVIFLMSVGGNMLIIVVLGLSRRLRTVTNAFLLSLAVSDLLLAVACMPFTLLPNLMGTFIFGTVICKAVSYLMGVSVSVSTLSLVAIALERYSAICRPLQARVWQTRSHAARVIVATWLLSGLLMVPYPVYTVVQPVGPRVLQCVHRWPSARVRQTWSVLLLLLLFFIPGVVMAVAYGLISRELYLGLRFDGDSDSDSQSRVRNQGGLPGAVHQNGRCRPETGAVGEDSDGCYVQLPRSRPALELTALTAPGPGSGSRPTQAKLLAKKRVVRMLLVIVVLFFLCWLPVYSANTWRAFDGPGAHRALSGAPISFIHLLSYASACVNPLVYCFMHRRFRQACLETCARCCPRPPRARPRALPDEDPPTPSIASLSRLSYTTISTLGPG

[3] = target: T2, human cholecystokinin-2 receptor (CCK-2R); test: In vitro receptor binding to CCK-2R, SPA displacement of [125I]-CCK-8s from plasma membranes
[4] = 1321-N1 cells stably expressing CCK-1R, IP1 accumulation, average of min. three replicates, read-out: EC50 (CCK-1R)
[5] = 1321-N1 cells stably expressing CCK-2R, IP1 accumulation, highest dose tested 1×10^6 pM, read-out: EC50 (CCK-2R)
[6] = displacement of [125I]-CCK-8s, plasma membranes of 1321-N1 cells expressing CCK-2R, highest dose tested 1×10^7 pM, read-out: IC50 (CCK-2R)

| Compound | pEC50 [1, 4] | pEC50 [2, 5] | pIC50 [3, 6] | pEC50 [1] | pEC50 [2] | pIC50 [3] |
| --- | --- | --- | --- | --- | --- | --- |
| CCCC[C@H](NC(=O)[C@H](Cc1c[nH]c2ccccc12)NC(=O)CNC(=O)[C@@H]1CCCN1C(=O)[C@H](Cc1ccc(OS(=O)(=O)O)cc1)NC(=O)[C@@H](N)CC(=O)O)C(=O)N(C)[C@H](CC(=O)O)C(=O)N(C)[C@@H](Cc1ccccc1)C(N)=O [Example 69, Asp-sTyr-Pro-Gly-Trp-Nle-DMeAsp-MePhe-amide] (H-D[sY]PGW[Nle][dNMeD][NMeF]-NH2) | 9.72 | < 6.00 | < 5.00 |  |  |  |
| CCCC[C@H](NC(=O)[C@H](Cc1c[nH]c2ccccc12)NC(=O)CNC(=O)[C@H](CC(C)C)NC(=O)[C@H](Cc1ccc(OS(=O)(=O)O)cc1)NC(=O)[C@@H](N)CC(=O)O)C(=O)N(C)[C@H](CC(=O)O)C(=O)N[C@@H](Cc1ccccc1)C(N)=O [Example 58, Asp-sTyr-Leu-Gly-Trp-Nle-DMeAsp-Phe-amide] | 9.68 | < 6.00 | < 5.00 |  |  |  |
| CC(C)C[C@H](NC(=O)[C@H](Cc1ccc(OS(=O)(=O)O)cc1)NC(=O)[C@@H](N)CC(=O)O)C(=O)NCC(=O)N[C@@H](Cc1c[nH]c2ccccc12)C(=O)N[C@@H](CC(C)C)C(=O)N(C)[C@H](CC(=O)O)C(=O)N(C)[C@@H](Cc1ccccc1)C(N)=O [Example 64, Asp-sTyr-Leu-Gly-Trp-Leu-DMeAsp-MePhe-amide] |  |  |  | 9.60 | < 6.00 | < 5.00 |
| CCCC[C@H](NC(=O)[C@H](Cc1ccc(CS(=O)(=O)O)cc1)NC(=O)[C@@H](N)CC(=O)O)C(=O)NCC(=O)N[C@@H](Cc1c[nH]c2ccccc12)C(=O)N[C@@H](CCCC)C(=O)N(C)[C@H](CC(=O)O)C(=O)N(C)[C@@H](Cc1ccccc1)C(N)=O [Example 55, Asp-Phe(4-sulfomethyl)-Nle-Gly-Trp-Nle-DMeAsp-MePhe-amide] (H-D[Phe(4-CH2SO3H)][Nle]GW[Nle][dNMeD][NMeF]-NH2) | 9.60 | < 6.00 | < 5.00 |  |  |  |
| CC(C)C[C@H](NC(=O)[C@H](Cc1ccc(OS(=O)(=O)O)cc1)NC(=O)[C@H](CC(=O)O)NC(=O)COCCOCCNC(=O)COCCOCCNC(=O)CC[C@H](NC(=O)CCCCCCCCCCCCCCCCC(=O)O)C(=O)O)C(=O)NCC(=O)N[C@@H](Cc1c[nH]c2ccccc12)C(=O)N[C@@H](CCS(C)(=O)=O)C(=O)N(C)[C@H](CC(=O)O)C(=O)N(C)[C@@H](Cc1ccccc1)C(N)=O [Example 12, 2-[2-[2-[[2-[2-[2-[[(4S)-4-Carboxy-4-(17-carboxyheptadecanoylamino)butanoyl]amino]ethoxy]ethoxy]acetyl]amino]ethoxy]ethoxy]acetyl-Asp-sTyr-Leu-Gly-Trp-Met(O2)-DMeAsp-MePhe-amide] ({C18 diacid-γGlu-AEEA-AEEA}-D[sY]LGW[Met(O2)][dNMeD][NMeF]-NH2) | 9.85 | < 6.00 |  |  |  | < 5.00 |
| CCCC[C@H](NC(=O)[C@H](Cc1c[nH]c2ccccc12)NC(=O)CNC(=O)[C@H](CO)NC(=O)[C@H](Cc1ccc(OS(=O)(=O)O)cc1)NC(=O)[C@@H](N)CC(=O)O)C(=O)N(C)[C@H](CC(=O)O)C(=O)N(C)[C@@H](Cc1ccccc1)C(N)=O [Example 79, Asp-sTyr-Ser-Gly-Trp-Nle-DMeAsp-MePhe-amide] (H-D[sY]SGW[Nle][dNMeD][NMeF]-NH2) | 9.72 | < 6.00 |  |  |  |  |
| CCCC[C@H](NC(=O)[C@H](Cc1c[nH]c2ccccc12)NC(=O)CNC(=O)[C@H](C)NC(=O)[C@H](Cc1ccc(OS(=O)(=O)O)cc1)NC(=O)[C@@H](N)CC(=O)O)C(=O)N(C)[C@H](CC(=O)O)C(=O)N(C)[C@@H](Cc1ccccc1)C(N)=O [Example 80, Asp-sTyr-Ala-Gly-Trp-Nle-DMeAsp-MePhe-amide] (H-D[sY]AGW[Nle][dNMeD][NMeF]-NH2) | 9.80 | < 6.00 | < 5.00 |  |  |  |
